Experimental data taken from the NIST ThermoML archive (doi:10.1021/je100148h).
Numbers after ± are expanded uncertainties.

Assay: xn = mol fraction of the nth substance listed
Conditions: Fluid (supercritical or subcritical phases), Burnett expansion method

CCC [propane] + O=C=O
Conditions	mass density [kg/m3]
360.01 K, 5054 kPa, x2 = 0.8017	90.4354 ± 0.017
360.01 K, 6218.2 kPa, x2 = 0.5158	141.203 ± 0.025
360.02 K, 178.29 kPa, x2 = 0.8017	2.6378 ± 0.02
360.02 K, 245.35 kPa, x2 = 0.8017	3.6378 ± 0.02
360.02 K, 337.31 kPa, x2 = 0.8017	5.0167 ± 0.019
360.02 K, 463.19 kPa, x2 = 0.8017	6.9183 ± 0.019
360.02 K, 634.97 kPa, x2 = 0.8017	9.5406 ± 0.018
360.02 K, 868.69 kPa, x2 = 0.8017	13.1566 ± 0.017
360.02 K, 3863.5 kPa, x2 = 0.8017	65.5911 ± 0.014
360.02 K, 6495 kPa, x2 = 0.8017	124.684 ± 0.019
370 K, 1659.1 kPa, x2 = 0.8017	25.0073 ± 0.017
370.01 K, 476.31 kPa, x2 = 0.8017	6.9151 ± 0.021
370.01 K, 653.23 kPa, x2 = 0.8017	9.5361 ± 0.02
370.01 K, 894.13 kPa, x2 = 0.8017	13.1504 ± 0.019
370.01 K, 1220.3 kPa, x2 = 0.8017	18.1344 ± 0.018
370.01 K, 2244.1 kPa, x2 = 0.8017	34.4826 ± 0.016
370.01 K, 3013.9 kPa, x2 = 0.8017	47.5475 ± 0.015
370.01 K, 5267 kPa, x2 = 0.8017	90.3909 ± 0.017
370.02 K, 205.87 kPa, x2 = 0.5158	2.9726 ± 0.011
370.02 K, 283.04 kPa, x2 = 0.5158	4.1011 ± 0.011
370.02 K, 346.79 kPa, x2 = 0.8017	5.0143 ± 0.021
370.02 K, 388.65 kPa, x2 = 0.5158	5.6577 ± 0.011
370.02 K, 992.19 kPa, x2 = 0.5158	14.8545 ± 0.011
370.02 K, 1345.8 kPa, x2 = 0.5158	20.4921 ± 0.011
370.02 K, 1815.3 kPa, x2 = 0.5158	28.2684 ± 0.012
370.02 K, 2426.9 kPa, x2 = 0.5158	38.9941 ± 0.012
370.02 K, 3206 kPa, x2 = 0.5158	53.7882 ± 0.013
370.02 K, 4009.4 kPa, x2 = 0.8017	65.5581 ± 0.014
370.02 K, 4171 kPa, x2 = 0.5158	74.1924 ± 0.016
370.02 K, 5317.2 kPa, x2 = 0.5158	102.331 ± 0.02
370.02 K, 6617 kPa, x2 = 0.5158	141.135 ± 0.022
370.02 K, 6810.4 kPa, x2 = 0.8017	124.62 ± 0.018
370.03 K, 532.61 kPa, x2 = 0.5158	7.8051 ± 0.011
370.03 K, 728.17 kPa, x2 = 0.5158	10.7675 ± 0.011
380.02 K, 188.21 kPa, x2 = 0.8017	2.6354 ± 0.022
380.02 K, 259.02 kPa, x2 = 0.8017	3.6346 ± 0.023
380.02 K, 399.41 kPa, x2 = 0.5158	5.6555 ± 0.011
380.02 K, 671.46 kPa, x2 = 0.8017	9.5319 ± 0.022
380.02 K, 919.55 kPa, x2 = 0.8017	13.1448 ± 0.021
380.02 K, 1255.9 kPa, x2 = 0.8017	18.1264 ± 0.02
380.02 K, 1386.9 kPa, x2 = 0.5158	20.4838 ± 0.011
380.02 K, 1709 kPa, x2 = 0.8017	24.9958 ± 0.019
380.02 K, 1873.6 kPa, x2 = 0.5158	28.257 ± 0.012
380.02 K, 3114.5 kPa, x2 = 0.8017	47.5261 ± 0.016
380.02 K, 3326.5 kPa, x2 = 0.5158	53.7656 ± 0.013
380.02 K, 4154.3 kPa, x2 = 0.8017	65.5297 ± 0.015
380.02 K, 4347.6 kPa, x2 = 0.5158	74.1614 ± 0.015
380.02 K, 5478.5 kPa, x2 = 0.8017	90.3475 ± 0.018
380.02 K, 5579.3 kPa, x2 = 0.5158	102.287 ± 0.019
380.02 K, 7122.7 kPa, x2 = 0.8017	124.564 ± 0.018
380.03 K, 356.25 kPa, x2 = 0.8017	5.0122 ± 0.023
380.03 K, 489.43 kPa, x2 = 0.8017	6.9121 ± 0.022
380.03 K, 547.58 kPa, x2 = 0.5158	7.802 ± 0.011
380.03 K, 749.01 kPa, x2 = 0.5158	10.7633 ± 0.011
380.03 K, 1021.4 kPa, x2 = 0.5158	14.8485 ± 0.011
380.03 K, 2314.7 kPa, x2 = 0.8017	34.4669 ± 0.017
380.03 K, 2510.4 kPa, x2 = 0.5158	38.978 ± 0.012
380.03 K, 7010.3 kPa, x2 = 0.5158	141.07 ± 0.021
380.04 K, 211.45 kPa, x2 = 0.5158	2.9713 ± 0.011
380.04 K, 290.81 kPa, x2 = 0.5158	4.0993 ± 0.011
390.02 K, 2384.9 kPa, x2 = 0.8017	34.4507 ± 0.019
390.02 K, 3446.3 kPa, x2 = 0.5158	53.7433 ± 0.013
390.02 K, 5838.5 kPa, x2 = 0.5158	102.241 ± 0.018
390.03 K, 193.15 kPa, x2 = 0.8017	2.6342 ± 0.025
390.03 K, 217.06 kPa, x2 = 0.5158	2.9702 ± 0.011
390.03 K, 265.87 kPa, x2 = 0.8017	3.6329 ± 0.025
390.03 K, 365.64 kPa, x2 = 0.8017	5.0098 ± 0.025
390.03 K, 410.13 kPa, x2 = 0.5158	5.6532 ± 0.011
390.03 K, 502.51 kPa, x2 = 0.8017	6.9089 ± 0.024
390.03 K, 689.66 kPa, x2 = 0.8017	9.5275 ± 0.024
390.03 K, 769.82 kPa, x2 = 0.5158	10.759 ± 0.011
390.03 K, 944.86 kPa, x2 = 0.8017	13.1385 ± 0.023
390.03 K, 1050.5 kPa, x2 = 0.5158	14.8425 ± 0.011
390.03 K, 1428 kPa, x2 = 0.5158	20.475 ± 0.011
390.03 K, 1758.8 kPa, x2 = 0.8017	24.9833 ± 0.021
390.03 K, 1931.7 kPa, x2 = 0.5158	28.245 ± 0.012
390.03 K, 2593.4 kPa, x2 = 0.5158	38.9614 ± 0.012
390.03 K, 3214.7 kPa, x2 = 0.8017	47.5025 ± 0.017
390.03 K, 4298.5 kPa, x2 = 0.8017	65.4967 ± 0.016
390.03 K, 4522.9 kPa, x2 = 0.5158	74.1282 ± 0.014
390.03 K, 5688.3 kPa, x2 = 0.8017	90.3013 ± 0.017
390.03 K, 7399 kPa, x2 = 0.5158	141.004 ± 0.019
390.03 K, 7432.4 kPa, x2 = 0.8017	124.497 ± 0.017
390.04 K, 298.57 kPa, x2 = 0.5158	4.0977 ± 0.011
390.04 K, 562.52 kPa, x2 = 0.5158	7.7989 ± 0.011
390.04 K, 1291.3 kPa, x2 = 0.8017	18.1174 ± 0.022
400.02 K, 970.17 kPa, x2 = 0.8017	13.1371 ± 0.024
400.03 K, 272.65 kPa, x2 = 0.8017	3.6324 ± 0.027
400.03 K, 375.15 kPa, x2 = 0.8017	5.0093 ± 0.026
400.03 K, 515.7 kPa, x2 = 0.8017	6.908 ± 0.026
400.03 K, 577.33 kPa, x2 = 0.5158	7.7944 ± 0.011
400.03 K, 707.92 kPa, x2 = 0.8017	9.5262 ± 0.025
400.03 K, 790.53 kPa, x2 = 0.5158	10.7528 ± 0.011
400.03 K, 1079.5 kPa, x2 = 0.5158	14.8335 ± 0.011
400.03 K, 1326.5 kPa, x2 = 0.8017	18.1154 ± 0.023
400.03 K, 1468.7 kPa, x2 = 0.5158	20.4633 ± 0.011
400.03 K, 1808.4 kPa, x2 = 0.8017	24.9801 ± 0.022
400.03 K, 2454.9 kPa, x2 = 0.8017	34.4454 ± 0.021
400.03 K, 3565.3 kPa, x2 = 0.5158	53.7096 ± 0.013
400.03 K, 6095.5 kPa, x2 = 0.5158	102.176 ± 0.015
400.03 K, 7739.4 kPa, x2 = 0.8017	124.476 ± 0.017
400.03 K, 7784.2 kPa, x2 = 0.5158	140.912 ± 0.018
400.04 K, 198.07 kPa, x2 = 0.8017	2.6338 ± 0.027
400.04 K, 222.65 kPa, x2 = 0.5158	2.9684 ± 0.011
400.04 K, 306.29 kPa, x2 = 0.5158	4.0953 ± 0.011
400.04 K, 420.82 kPa, x2 = 0.5158	5.6498 ± 0.011
400.04 K, 1989.5 kPa, x2 = 0.5158	28.2277 ± 0.012
400.04 K, 2676 kPa, x2 = 0.5158	38.9372 ± 0.012
400.04 K, 3314.3 kPa, x2 = 0.8017	47.4952 ± 0.019
400.04 K, 4441.8 kPa, x2 = 0.8017	65.4859 ± 0.017
400.04 K, 4696.7 kPa, x2 = 0.5158	74.0811 ± 0.013
400.04 K, 5896.6 kPa, x2 = 0.8017	90.2853 ± 0.016
